Several values for one entry are separate records, joined by “and”; a condition that tells them apart may be missing. Identical values can stand only once.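 Briefly, cells in 96-well plates were exposed to five compound concentrations for 48 h, and endpoints were estimated by linear interpolation. Here, GI50 denotes the concentration required for 50% inhibition of growth.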 Activity calls are given as the source filed them. Cut-off read from the data, not from the text of the source: active = GI50 up to about 1.1 µM and inactive = higher. Non-standard residues stand in square brackets, D forms with d. Residues, ends and D or L forms follow the SMILES beside them. *: point of attachment. NMeF = CN[CH](Cc1ccccc1)C(=O)O; NMeV = CN[CH](C(=O)O)C(C)C; Boc = CC(C)(C)OC(=O)*; OBn = c1ccc(CO*)cc1
Experiments:
Experiment in all cases: growth of human tumour cells (NCI), 48 h
NCI-H226 = test system: NCI-H226
M14 = test system: M14
SW-620 = test system: SW-620
HCC 2998 = test system: HCC 2998
A549 = test system: A549
U-251 = test system: U-251
EKVX = test system: EKVX
HCT-15 = test system: HCT-15
NCI-H522 = test system: NCI-H522
DMS-273 = test system: DMS-273
TK-10 = test system: TK-10
SK-MEL-28 = test system: SK-MEL-28
DMS-114 = test system: DMS-114
786-0 = test system: 786-0
UO-31 = test system: UO-31
IGROV-1 = test system: IGROV-1
NCI-H23 = test system: NCI-H23
NCI-H460 = test system: NCI-H460
HCT-116 = test system: HCT-116
HL-60 = test system: HL-60
SF-295 = test system: SF-295
SR = test system: SR
SK-OV-3 = test system: SK-OV-3
HOP-62 = test system: HOP-62
SF-268 = test system: SF-268
COLO 205 = test system: COLO 205
OVCAR-8 = test system: OVCAR-8
Malme-3M = test system: Malme-3M
SK-MEL-5 = test system: SK-MEL-5
UACC-62 = test system: UACC-62
OVCAR-5 = test system: OVCAR-5
HOP-92 = test system: HOP-92
LXFL 529 = test system: LXFL 529
DLD-1 = test system: DLD-1
HT-29 = test system: HT-29
UACC-257 = test system: UACC-257
HOP-18 = test system: HOP-18
CCRF-CEM = test system: CCRF-CEM
M19-MEL = test system: M19-MEL
SF-539 = test system: SF-539
SNB-75 = test system: SNB-75
MOLT-4 = test system: MOLT-4
K562 = test system: K562
SNB-19 = test system: SNB-19
ACHN = test system: ACHN
KM12 = test system: KM12
OVCAR-3 = test system: OVCAR-3
A498 = test system: A498
RXF 393 = test system: RXF 393
CAKI-1 = test system: CAKI-1
NCI/ADR-RES = test system: NCI/ADR-RES
RPMI-8226 = test system: RPMI-8226
PC-3 = test system: PC-3
LOX IMVI = test system: LOX IMVI
Hs-578T = test system: Hs-578T
SK-MEL-2 = test system: SK-MEL-2
DU-145 = test system: DU-145
SN12C = test system: SN12C
MDA-N = test system: MDA-N
BT-549 = test system: BT-549
MCF7 = test system: MCF7
MDA-MB-435 = test system: MDA-MB-435
MDA-MB-231 = test system: MDA-MB-231
T47D = test system: T47D
OVCAR-4 = test system: OVCAR-4

CC(C)C(NC(=O)OC(C)(C)C)C(=O)N(C)C(Cc1ccccc1)C(=O)N(C)C(C(=O)OCc1ccccc1)C(C)C (stereo not drawn) (Boc-Val-[NMeF]-[NMeV]-OBn; configuration not given here)
GI50 (NCI-H226): > 100 µM (inactive) and 73.5 µM (inactive) | GI50 (M14): 59.3 µM (inactive) and 94.4 µM (inactive) | GI50 (SW-620): 75.2 µM (inactive) | GI50 (HCC 2998): > 100 µM (inactive) | GI50 (A549): 39.5 µM (inactive) and 46.8 µM (inactive) | GI50 (U-251): 82.2 µM (inactive) and 43.8 µM (inactive) | GI50 (EKVX): > 100 µM (inactive) and 62.1 µM (inactive) | GI50 (HCT-15): 67.1 µM and 79.3 µM | GI50 (NCI-H522): 12.2 µM (inactive) and 22.8 µM (inactive) | GI50 (DMS-273): 34.1 µM (inactive) and 33.8 µM (inactive) | GI50 (TK-10): > 100 µM (inactive) | GI50 (SK-MEL-28): > 100 µM (inactive) | GI50 (DMS-114): 29.4 µM (inactive) and 30.5 µM (inactive) | GI50 (786-0): > 100 µM (inactive) | GI50 (UO-31): 85.3 µM (inactive) and 53.1 µM (inactive) | GI50 (IGROV-1): 91.2 µM (inactive) | GI50 (NCI-H23): 37.1 µM (inactive) and 68.5 µM (inactive) | GI50 (NCI-H460): 39 µM (inactive) and 41 µM (inactive) | GI50 (HCT-116): 40 µM (inactive) and 28.4 µM (inactive) | GI50 (HL-60): 33.4 µM (inactive) and 19.5 µM (inactive) | GI50 (SF-295): 17.6 µM (inactive) and 34.6 µM (inactive) | GI50 (SR): 27.9 µM (inactive) and 22.6 µM (inactive) | GI50 (SK-OV-3): > 100 µM (inactive) | GI50 (HOP-62): 85.9 µM (inactive) | GI50 (SF-268): > 100 µM (inactive) | GI50 (COLO 205): 37.7 µM (inactive) and 44.2 µM (inactive) | GI50 (OVCAR-8): 74.6 µM (inactive) and 70.5 µM (inactive) | GI50 (Malme-3M): > 100 µM (inactive) | GI50 (SK-MEL-5): 15.4 µM (inactive) | GI50 (UACC-62): 81.8 µM (inactive)

COc1ccc(/C=N/NC(=O)c2sc(=S)n(-c3ccccc3)c2N)cc1
GI50 (OVCAR-5): > 100 µM (inactive) | GI50 (NCI-H226): > 100 µM (inactive) | GI50 (SW-620): > 100 µM (inactive) | GI50 (HOP-92): 9.51 µM (inactive) | GI50 (HCC 2998): 73.5 µM (inactive) | GI50 (LXFL 529): 51.2 µM (inactive) | GI50 (A549): > 100 µM (inactive) | GI50 (U-251): 66.2 µM (inactive) | GI50 (NCI-H522): 42.1 µM (inactive) | GI50 (DLD-1): > 100 µM (inactive) | GI50 (HT-29): 73.8 µM (inactive) | GI50 (UACC-257): > 100 µM (inactive) | GI50 (TK-10): 7.14 µM (inactive) | GI50 (HOP-18): 39.4 µM (inactive) | GI50 (SK-MEL-28): 33.1 µM (inactive) | GI50 (CCRF-CEM): > 100 µM (inactive) | GI50 (M19-MEL): > 100 µM (inactive) | GI50 (UO-31): > 100 µM (inactive) | GI50 (IGROV-1): > 100 µM (inactive) | GI50 (SF-539): 6.92 µM (inactive) | GI50 (NCI-H23): > 100 µM (inactive) | GI50 (NCI-H460): 6.04 µM (inactive) | GI50 (HCT-116): 91.6 µM (inactive) | GI50 (HL-60): > 100 µM (inactive) | GI50 (SNB-75): 1.6 µM (inactive) | GI50 (MOLT-4): > 100 µM (inactive) | GI50 (K562): 1.48 µM (inactive) | GI50 (SNB-19): 28.1 µM (inactive) | GI50 (SF-295): 19.8 µM (inactive) | GI50 (SR): > 100 µM (inactive) | GI50 (SK-OV-3): 11.2 µM (inactive) | GI50 (HOP-62): 22.2 µM (inactive) | GI50 (ACHN): 20.7 µM (inactive) | GI50 (SF-268): 21.4 µM (inactive) | GI50 (COLO 205): > 100 µM (inactive) | GI50 (OVCAR-8): 44.7 µM (inactive) | GI50 (KM12): 7.85 µM (inactive) | GI50 (OVCAR-3): 83.9 µM (inactive) | GI50 (SK-MEL-5): 71.4 µM (inactive) | GI50 (UACC-62): 89.1 µM (inactive)

NC(Cc1c[nH]c(I)n1)C(=O)O (centres undefined)
GI50 (OVCAR-5): > 100 µM (inactive) | GI50 (NCI-H226): > 100 µM (inactive) | GI50 (M14): > 100 µM (inactive) | GI50 (SW-620): 30 µM (inactive) | GI50 (HOP-92): 25.6 µM (inactive) | GI50 (HCC 2998): 34.9 µM (inactive) | GI50 (A498): > 100 µM (inactive) | GI50 (RXF 393): 45.2 µM (inactive) | GI50 (CAKI-1): 29.3 µM (inactive) | GI50 (A549): > 100 µM (inactive) | GI50 (U-251): > 100 µM (inactive) | GI50 (EKVX): 42.7 µM (inactive) | GI50 (HCT-15): 46.2 µM | GI50 (NCI/ADR-RES): 37.1 µM (inactive) | GI50 (NCI-H522): 24.3 µM (inactive) | GI50 (HT-29): > 100 µM (inactive) | GI50 (UACC-257): 41.1 µM (inactive) | GI50 (TK-10): > 100 µM (inactive) | GI50 (SK-MEL-28): 74.1 µM (inactive) | GI50 (CCRF-CEM): 22.1 µM (inactive) | GI50 (RPMI-8226): > 100 µM (inactive) | GI50 (PC-3): > 100 µM (inactive) | GI50 (LOX IMVI): > 100 µM (inactive) | GI50 (Hs-578T): 23.8 µM (inactive) | GI50 (786-0): > 100 µM (inactive) | GI50 (UO-31): > 100 µM (inactive) | GI50 (IGROV-1): 67 µM (inactive) | GI50 (SF-539): 37.4 µM (inactive) | GI50 (SK-MEL-2): > 100 µM (inactive) | GI50 (NCI-H23): 81.3 µM (inactive) | GI50 (NCI-H460): > 100 µM (inactive) | GI50 (HCT-116): 81.5 µM (inactive) | GI50 (HL-60): 2.27 µM (inactive) | GI50 (SNB-75): 25.6 µM (inactive) | GI50 (DU-145): > 100 µM (inactive) | GI50 (MOLT-4): > 100 µM (inactive) | GI50 (K562): 53.6 µM (inactive) | GI50 (SNB-19): > 100 µM (inactive) | GI50 (SF-295): > 100 µM (inactive) | GI50 (SN12C): > 100 µM (inactive) | GI50 (MDA-N): > 100 µM (inactive) | GI50 (SR): 34.4 µM (inactive) | GI50 (SK-OV-3): > 100 µM (inactive) | GI50 (HOP-62): > 100 µM (inactive) | GI50 (BT-549): 43.4 µM (inactive) | GI50 (MCF7): 41.4 µM (inactive) | GI50 (MDA-MB-435): > 100 µM (inactive) | GI50 (ACHN): > 100 µM (inactive) | GI50 (SF-268): 84.9 µM (inactive) | GI50 (COLO 205): > 100 µM (inactive) | GI50 (OVCAR-8): 81.5 µM (inactive) | GI50 (KM12): > 100 µM (inactive) | GI50 (MDA-MB-231): > 100 µM (inactive) | GI50 (Malme-3M): 17.7 µM (inactive) | GI50 (OVCAR-3): 32.4 µM (inactive) | GI50 (SK-MEL-5): 82.2 µM (inactive) | GI50 (UACC-62): > 100 µM (inactive) | GI50 (T47D): 90.6 µM (inactive) | GI50 (OVCAR-4): 49.9 µM (inactive)
